Assay results as given in patent publication US20050209162A1, “Methods for monitoring IL-18” (priority 2003, published 2005).

Tests used:
[1] = Absorption and conversion to Compound B upon oral administration; type: in vivo; conditions: converted into Compound B
[2] = system: IL-18; assay: Serum IL-18 levels (sandwich IL-18 ELISA) in healthy male subjects treated with oral Compound A for 14 days; type: in vivo, human; conditions: 900 mg q8 h oral
Method: Compound A was evaluated in a double-blind, randomized, placebo-controlled, oral dose, sequential group study in healthy male subjects. 9 subjects received 900 mg Compound A 14 days. 3 subjects received placebo treatment. Doses were administered three times a day at 8-hour intervals on Days 1 to 13 inclusive, and once in the morning of Day 14. All doses were administered in the fasted state.
Blood samples (1×3.5 mL) were taken by venepuncture or cannulation of a forearm vein(s).
Blood samples were collected into 3.5 mL SST Vacutainer® tubes (Becton Dickinson UK Ltd., Oxford) and, after mixing, stored at ambient temperature for at least 30 min prior to centrifugation. The samples were centrifuged, within 1 hour of collection, at 1500 g for 10 minutes at approximately 4° C. For each sample, the separated serum was transferred into two 5 mL suitably labelled polypropylene tubes (at least 0.6 mL in each tube), and stored within 2 hours of collection, at approximately −70° C. the laboratory for IL-18 assay.
IL-18 was assayed using a sandwich IL-18 ELISA technique (Human IL-18 ELISA Kit, Medical and Biological Laboratories, Nagoya, Japan). Standards, Controls and Samples were incubated in wells coated with an anti-human IL-18 monoclonal antibody. […] The developed color was then measured at an OD of 450 using a 630 nm reference filter.

[3] = biological target: T1, ICE (Homo sapiens, UniProt P29466); assay: ICE inhibition constant (Ki); type: biochemical
T1 sequence (P29466 120-297 limits assumed): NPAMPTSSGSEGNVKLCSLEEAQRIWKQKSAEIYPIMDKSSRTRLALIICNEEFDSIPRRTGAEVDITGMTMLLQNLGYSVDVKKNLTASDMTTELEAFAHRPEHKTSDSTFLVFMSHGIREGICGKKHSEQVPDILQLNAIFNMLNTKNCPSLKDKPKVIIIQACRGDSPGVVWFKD
T1 sequence (P29466 317-404 limits assumed): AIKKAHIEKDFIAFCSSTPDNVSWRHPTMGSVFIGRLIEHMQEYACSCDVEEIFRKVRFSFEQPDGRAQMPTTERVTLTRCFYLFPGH

With `CCO[C@@H]1OC(=O)C[C@@H]1NC(=O)[C@@H]1CCCN1C(=O)[C@@H](NC(=O)c1ccc(N)c(Cl)c1)C(C)(C)C` [Compound A] as the molecule, how does the “absorption upon oral administration” value [1] read?
Its value is “rapidly absorbed”.

And the “inhibition of serum IL-18 concentrations (in words)” value ([2]; 14-day treatment period)?
Its value is “gradual but marked inhibition”.

What about the inhibition at 900 mg ([2]; Homo sapiens, 336 h, over 14 days of treatment, read-out: inhibition of serum IL-18 median levels) of the same molecule?
The inhibition at 900 mg was roughly 60%.

For `CC(C)(C)[C@H](NC(=O)c1ccc(N)c(Cl)c1)C(=O)N1CCC[C@H]1C(=O)N[C@H](C=O)CC(=O)O` [Compound B], which “Type of ICE inhibition” value [3] is on record?
Its value is “selective and reversible ICE inhibitor”.
